Assay results published in ChEMBL document CHEMBL5346964, “Discovery of LNP1892: A Precision Calcimimetic for the Treatment of Secondary Hyperparathyroidism” (J Med Chem, 2023).
pEC50: −log10 of the molar value.

Target: T1, Extracellular calcium-sensing receptor (Homo sapiens, UniProt P41180)
T1 sequence (P41180 whole entry): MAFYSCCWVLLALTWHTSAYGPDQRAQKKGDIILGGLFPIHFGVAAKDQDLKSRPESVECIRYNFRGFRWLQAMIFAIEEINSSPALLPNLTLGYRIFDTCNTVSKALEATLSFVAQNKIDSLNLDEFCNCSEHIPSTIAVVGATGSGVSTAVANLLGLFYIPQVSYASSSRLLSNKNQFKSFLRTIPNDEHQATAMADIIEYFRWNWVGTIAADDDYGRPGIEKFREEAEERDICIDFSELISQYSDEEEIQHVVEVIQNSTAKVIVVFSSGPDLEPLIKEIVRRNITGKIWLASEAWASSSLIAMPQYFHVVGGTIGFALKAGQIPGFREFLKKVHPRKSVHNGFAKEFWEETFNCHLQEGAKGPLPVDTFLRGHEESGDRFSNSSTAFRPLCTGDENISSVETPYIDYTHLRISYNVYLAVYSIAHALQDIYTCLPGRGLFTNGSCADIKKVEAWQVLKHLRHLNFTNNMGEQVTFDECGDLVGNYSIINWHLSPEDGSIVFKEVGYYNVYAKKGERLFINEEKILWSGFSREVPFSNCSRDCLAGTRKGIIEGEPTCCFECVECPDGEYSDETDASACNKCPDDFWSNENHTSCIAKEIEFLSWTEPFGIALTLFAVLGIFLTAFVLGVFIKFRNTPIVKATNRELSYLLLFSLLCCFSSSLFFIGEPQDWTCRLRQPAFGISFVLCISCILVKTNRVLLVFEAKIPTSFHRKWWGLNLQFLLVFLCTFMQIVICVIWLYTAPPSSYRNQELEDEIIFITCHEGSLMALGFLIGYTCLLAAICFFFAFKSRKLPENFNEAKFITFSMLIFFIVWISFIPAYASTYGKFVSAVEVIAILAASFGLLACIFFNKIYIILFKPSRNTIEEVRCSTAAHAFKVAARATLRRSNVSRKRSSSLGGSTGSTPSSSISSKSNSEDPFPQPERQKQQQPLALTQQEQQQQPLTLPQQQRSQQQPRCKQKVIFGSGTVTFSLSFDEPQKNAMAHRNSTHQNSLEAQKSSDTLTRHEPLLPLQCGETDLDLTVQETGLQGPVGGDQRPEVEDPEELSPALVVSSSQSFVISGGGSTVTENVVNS
Assay: Agonist activity at human CaSR expresssed in HEK293 cells in presence of glucose by Fluo4NW dye based FLIPR assay
Format: functional, cell-based
Details: read-out: EC50

Structure (SMILES) | pEC50
C[C@@H](NCC1CN(C(=O)c2ccccc2)c2ccccc2O1)c1cccc2ccccc12 (mixture of isomers; form 1) | 7.68
C[C@@H](NCC1CN(c2ccc(C(=O)O)cc2)c2ccccc2O1)c1cccc2ccccc12 (stereo not given in full) | 7.19
C[C@@H](NCC1CN(c2ccccc2)c2ccccc2O1)c1cccc2ccccc12 (mixture of isomers; form 1) | 7.27
C[C@@H](NCC1CN(C(=O)c2ccccc2)c2ccccc2O1)c1cccc2ccccc12 (mixture of isomers; form 2) | 7.05
COc1ccc(N2CC(CN[C@H](C)c3cccc4ccccc34)Oc3ccccc32)cc1C(=O)O (mixture of isomers; form 1) | < 6.52

Target: T2, CYP2D6 (Homo sapiens, UniProt P10635)
T2 sequence (P10635 whole entry): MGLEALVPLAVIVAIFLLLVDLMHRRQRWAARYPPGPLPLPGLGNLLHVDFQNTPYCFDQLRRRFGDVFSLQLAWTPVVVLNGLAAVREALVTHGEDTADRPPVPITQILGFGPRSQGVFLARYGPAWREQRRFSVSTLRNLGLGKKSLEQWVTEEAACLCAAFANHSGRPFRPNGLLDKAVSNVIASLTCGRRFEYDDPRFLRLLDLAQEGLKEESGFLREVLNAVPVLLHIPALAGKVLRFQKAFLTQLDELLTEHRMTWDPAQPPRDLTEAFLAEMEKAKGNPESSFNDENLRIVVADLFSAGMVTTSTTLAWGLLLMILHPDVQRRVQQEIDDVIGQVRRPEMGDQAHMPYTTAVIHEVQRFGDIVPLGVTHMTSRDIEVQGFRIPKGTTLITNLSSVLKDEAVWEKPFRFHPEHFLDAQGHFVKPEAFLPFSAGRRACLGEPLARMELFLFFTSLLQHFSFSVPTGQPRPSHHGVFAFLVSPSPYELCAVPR
Assay: Inhibition of CYP2D6 in human liver microsomes at 1 uM preincubated for 5 mins followed by NADPH addition by LC-MS/MS analysis relative to control
Format: ADME, Microsome
Details: not given

Structure (SMILES) | inhibition at 1 µM [%]
C[C@@H](NC[C@H]1C[C@@H](c2ccc(F)c(C(=O)O)c2)c2ccccc2O1)c1cccc2ccccc12 | 5
C[C@@H](NCC1CN(C)c2ccccc2O1)c1cccc2ccccc12 (stereo not given in full) | 92
Cc1c(C(=O)O)cccc1[C@@H]1C[C@H](CN[C@H](C)c2cccc3ccccc23)Oc2ccccc21 | 7
Cc1ccc(C(=O)O)cc1[C@@H]1C[C@H](CN[C@H](C)c2cccc3ccccc23)Oc2ccccc21 | 7
C[C@@H](NCC1CN(CC(F)(F)F)c2ccccc2O1)c1cccc2ccccc12 (stereo not given in full) | 78
COc1ccc([C@@H]2C[C@H](CN[C@H](C)c3cccc4ccccc34)Oc3ccccc32)cc1C(=O)O | 0
C[C@@H](NCC1CN(C(=O)c2ccccc2)c2ccccc2O1)c1cccc2ccccc12 (mixture of isomers; form 1) | 7
C[C@@H](NCC1CN(c2ccccn2)c2ccccc2O1)c1cccc2ccccc12 (stereo not given in full) | 85
C[C@@H](NCC1CN(c2ccc(C(=O)O)cc2)c2ccccc2O1)c1cccc2ccccc12 (stereo not given in full) | 65
C[C@@H](NCC1CN(c2ccccc2)c2ccccc2O1)c1cccc2ccccc12 (mixture of isomers; form 1) | 87
C[C@@H](NC[C@H]1C[C@H](c2cccc(C(=O)O)c2)c2ccccc2O1)c1cccc2ccccc12 | 8
C[C@@H](NC[C@H]1C[C@@H](c2cccc(C(=O)O)c2)c2ccccc2O1)c1cccc2ccccc12 | 17
C[C@@H](NCC1CNc2ccccc2O1)c1cccc2ccccc12 (stereo not given in full) | 94

Target: T2, CYP2D6
Assay: Inhibition of CYP2D6 in human liver microsomes at 10 uM preincubated for 5 mins followed by NADPH addition by LC-MS/MS analysis relative to control
Format: ADME, Microsome
Details: not given

Structure (SMILES) | inhibition at 10 µM [%]
C[C@@H](NC[C@H]1C[C@@H](c2ccc(F)c(C(=O)O)c2)c2ccccc2O1)c1cccc2ccccc12 | 25
C[C@@H](NCC1CN(C)c2ccccc2O1)c1cccc2ccccc12 (stereo not given in full) | 93
Cc1c(C(=O)O)cccc1[C@@H]1C[C@H](CN[C@H](C)c2cccc3ccccc23)Oc2ccccc21 | 25
Cc1ccc(C(=O)O)cc1[C@@H]1C[C@H](CN[C@H](C)c2cccc3ccccc23)Oc2ccccc21 | 36
C[C@@H](NCC1CN(CC(F)(F)F)c2ccccc2O1)c1cccc2ccccc12 (stereo not given in full) | 82
COc1ccc([C@@H]2C[C@H](CN[C@H](C)c3cccc4ccccc34)Oc3ccccc32)cc1C(=O)O | 0
C[C@@H](NCC1CN(C(=O)c2ccccc2)c2ccccc2O1)c1cccc2ccccc12 (mixture of isomers; form 1) | 72
C[C@@H](NCC1CN(c2ccccn2)c2ccccc2O1)c1cccc2ccccc12 (stereo not given in full) | 87
C[C@@H](NCC1CN(c2ccc(C(=O)O)cc2)c2ccccc2O1)c1cccc2ccccc12 (stereo not given in full) | 65
C[C@@H](NC[C@H]1C[C@H](c2cccc(C(=O)O)c2)c2ccccc2O1)c1cccc2ccccc12 | 24
C[C@@H](NC[C@H]1C[C@@H](c2cccc(C(=O)O)c2)c2ccccc2O1)c1cccc2ccccc12 | 35
C[C@@H](NCC1CNc2ccccc2O1)c1cccc2ccccc12 (stereo not given in full) | 94

Target: T3, hERG (Homo sapiens, UniProt Q12809)
T3 sequence (Q12809 whole entry): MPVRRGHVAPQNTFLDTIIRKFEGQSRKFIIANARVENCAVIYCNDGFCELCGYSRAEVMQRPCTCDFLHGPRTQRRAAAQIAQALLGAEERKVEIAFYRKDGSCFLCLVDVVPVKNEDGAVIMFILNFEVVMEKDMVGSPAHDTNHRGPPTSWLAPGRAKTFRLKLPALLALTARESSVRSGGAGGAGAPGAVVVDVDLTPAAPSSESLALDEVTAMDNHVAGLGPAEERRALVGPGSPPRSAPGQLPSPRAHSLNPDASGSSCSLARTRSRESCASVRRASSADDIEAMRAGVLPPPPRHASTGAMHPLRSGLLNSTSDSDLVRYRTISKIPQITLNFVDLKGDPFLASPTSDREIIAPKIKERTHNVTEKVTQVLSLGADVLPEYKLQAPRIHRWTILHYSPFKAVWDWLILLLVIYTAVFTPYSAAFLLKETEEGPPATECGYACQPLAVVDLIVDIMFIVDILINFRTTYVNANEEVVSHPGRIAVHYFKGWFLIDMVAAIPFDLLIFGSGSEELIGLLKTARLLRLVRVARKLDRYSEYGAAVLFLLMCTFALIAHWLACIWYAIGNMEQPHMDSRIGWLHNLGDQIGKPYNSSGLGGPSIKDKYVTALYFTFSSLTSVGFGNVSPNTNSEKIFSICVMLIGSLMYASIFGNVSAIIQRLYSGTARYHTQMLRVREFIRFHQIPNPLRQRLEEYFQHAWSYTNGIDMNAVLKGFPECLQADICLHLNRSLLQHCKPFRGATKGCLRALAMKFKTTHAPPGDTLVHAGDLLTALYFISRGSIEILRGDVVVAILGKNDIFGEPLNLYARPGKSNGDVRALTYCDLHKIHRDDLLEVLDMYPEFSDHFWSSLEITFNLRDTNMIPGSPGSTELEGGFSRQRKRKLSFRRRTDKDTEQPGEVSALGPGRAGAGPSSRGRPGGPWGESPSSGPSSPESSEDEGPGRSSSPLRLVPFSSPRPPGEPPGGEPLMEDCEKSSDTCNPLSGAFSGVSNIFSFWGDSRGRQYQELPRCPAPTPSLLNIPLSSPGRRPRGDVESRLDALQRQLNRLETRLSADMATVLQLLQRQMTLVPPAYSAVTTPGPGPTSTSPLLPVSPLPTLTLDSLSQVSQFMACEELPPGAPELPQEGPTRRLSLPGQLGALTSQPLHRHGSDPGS
Assay: Inhibition of hERG at 1 uM relative to control
Format: toxicity
Details: not given

Structure (SMILES) | inhibition at 1 µM [%]
C[C@@H](NCC1CN(C)c2ccccc2O1)c1cccc2ccccc12 (stereo not given in full) | 13
C[C@@H](NCC1CN(c2ccc(F)c(C(=O)O)c2)c2ccccc2O1)c1cccc2ccccc12 (mixture of isomers; form 1) | 5
Cc1ccc(C(=O)O)cc1[C@@H]1C[C@H](CN[C@H](C)c2cccc3ccccc23)Oc2ccccc21 | 5
COc1ccc([C@@H]2C[C@H](CN[C@H](C)c3cccc4ccccc34)Oc3ccccc32)cc1C(=O)O | -3
C[C@@H](NCC1CN(C(=O)c2ccccc2)c2ccccc2O1)c1cccc2ccccc12 (mixture of isomers; form 1) | 16
C[C@@H](NCC1CN(c2ccc(C(=O)O)cc2)c2ccccc2O1)c1cccc2ccccc12 (stereo not given in full) | 5
C[C@@H](NCC1CN(c2ccccc2)c2ccccc2O1)c1cccc2ccccc12 (mixture of isomers; form 1) | 14
C[C@@H](NCC1CNc2ccccc2O1)c1cccc2ccccc12 (stereo not given in full) | 19

Target: T3, hERG
Assay: Inhibition of hERG at 10 uM relative to control
Format: toxicity
Details: not given

Structure (SMILES) | inhibition at 10 µM [%]
C[C@@H](NCC1CN(C)c2ccccc2O1)c1cccc2ccccc12 (stereo not given in full) | 42
C[C@@H](NCC1CN(c2ccc(F)c(C(=O)O)c2)c2ccccc2O1)c1cccc2ccccc12 (mixture of isomers; form 1) | 21
Cc1ccc(C(=O)O)cc1[C@@H]1C[C@H](CN[C@H](C)c2cccc3ccccc23)Oc2ccccc21 | 2
COc1ccc([C@@H]2C[C@H](CN[C@H](C)c3cccc4ccccc34)Oc3ccccc32)cc1C(=O)O | -4
C[C@@H](NCC1CN(C(=O)c2ccccc2)c2ccccc2O1)c1cccc2ccccc12 (mixture of isomers; form 1) | 52
C[C@@H](NCC1CN(c2ccc(C(=O)O)cc2)c2ccccc2O1)c1cccc2ccccc12 (stereo not given in full) | -43
C[C@@H](NCC1CN(c2ccccc2)c2ccccc2O1)c1cccc2ccccc12 (mixture of isomers; form 1) | 26
C[C@@H](NCC1CNc2ccccc2O1)c1cccc2ccccc12 (stereo not given in full) | 97

System: not listed separately
Assay: Microsomal stability in rat liver microsomes assessed as parent compound remaining at 1 uM measured upto 30 mins in presence of NADPH by LC-MS/MS analysis
Format: ADME, Microsome
Details: read-out: Stability

Structure (SMILES) | remaining at 0.5 h, 1 µM [%]
C[C@@H](NC[C@H]1C[C@@H](c2ccc(F)c(C(=O)O)c2)c2ccccc2O1)c1cccc2ccccc12 | 40
C[C@@H](NCC1CN(C)c2ccccc2O1)c1cccc2ccccc12 (stereo not given in full) | 0
C[C@@H](NCC1CN(c2ccc(F)c(C(=O)O)c2)c2ccccc2O1)c1cccc2ccccc12 (mixture of isomers; form 1) | 61
Cc1c(C(=O)O)cccc1[C@@H]1C[C@H](CN[C@H](C)c2cccc3ccccc23)Oc2ccccc21 | 52
Cc1ccc(C(=O)O)cc1[C@@H]1C[C@H](CN[C@H](C)c2cccc3ccccc23)Oc2ccccc21 | 52
C[C@@H](NCC1CN(CC(F)(F)F)c2ccccc2O1)c1cccc2ccccc12 (stereo not given in full) | 5
COc1ccc([C@@H]2C[C@H](CN[C@H](C)c3cccc4ccccc34)Oc3ccccc32)cc1C(=O)O | 88
C[C@@H](NCC1CN(C(=O)c2ccccc2)c2ccccc2O1)c1cccc2ccccc12 (mixture of isomers; form 1) | 0
C[C@@H](NCC1CN(c2ccccn2)c2ccccc2O1)c1cccc2ccccc12 (stereo not given in full) | 5
C[C@@H](NCC1CN(c2ccc(C(=O)O)cc2)c2ccccc2O1)c1cccc2ccccc12 (stereo not given in full) | 28
C[C@@H](NCC1CN(c2ccccc2)c2ccccc2O1)c1cccc2ccccc12 (mixture of isomers; form 1) | 3
C[C@@H](NC[C@H]1C[C@H](c2cccc(C(=O)O)c2)c2ccccc2O1)c1cccc2ccccc12 | 31
C[C@@H](NC[C@H]1C[C@@H](c2cccc(C(=O)O)c2)c2ccccc2O1)c1cccc2ccccc12 | 31
C[C@@H](NCC1CNc2ccccc2O1)c1cccc2ccccc12 (stereo not given in full) | 0

System: not listed separately
Assay: Microsomal stability in human liver microsomes assessed as parent compound remaining at 1 uM measured upto 30 mins in presence of NADPH by LC-MS/MS analysis
Format: ADME, Microsome
Details: liver microsomes, read-out: Stability

Structure (SMILES) | remaining at 0.5 h, 1 µM [%]
C[C@@H](NC[C@H]1C[C@@H](c2ccc(F)c(C(=O)O)c2)c2ccccc2O1)c1cccc2ccccc12 | 94
C[C@@H](NCC1CN(C)c2ccccc2O1)c1cccc2ccccc12 (stereo not given in full) | 5
C[C@@H](NCC1CN(c2ccc(F)c(C(=O)O)c2)c2ccccc2O1)c1cccc2ccccc12 (mixture of isomers; form 1) | 6
Cc1c(C(=O)O)cccc1[C@@H]1C[C@H](CN[C@H](C)c2cccc3ccccc23)Oc2ccccc21 | 47
Cc1ccc(C(=O)O)cc1[C@@H]1C[C@H](CN[C@H](C)c2cccc3ccccc23)Oc2ccccc21 | 80
C[C@@H](NCC1CN(CC(F)(F)F)c2ccccc2O1)c1cccc2ccccc12 (stereo not given in full) | 10
COc1ccc([C@@H]2C[C@H](CN[C@H](C)c3cccc4ccccc34)Oc3ccccc32)cc1C(=O)O | 77
C[C@@H](NCC1CN(C(=O)c2ccccc2)c2ccccc2O1)c1cccc2ccccc12 (mixture of isomers; form 1) | 3
C[C@@H](NCC1CN(c2ccccn2)c2ccccc2O1)c1cccc2ccccc12 (stereo not given in full) | 2
C[C@@H](NCC1CN(c2ccc(C(=O)O)cc2)c2ccccc2O1)c1cccc2ccccc12 (stereo not given in full) | 34
C[C@@H](NCC1CN(c2ccccc2)c2ccccc2O1)c1cccc2ccccc12 (mixture of isomers; form 1) | 1
C[C@@H](NC[C@H]1C[C@H](c2cccc(C(=O)O)c2)c2ccccc2O1)c1cccc2ccccc12 | 57
C[C@@H](NC[C@H]1C[C@@H](c2cccc(C(=O)O)c2)c2ccccc2O1)c1cccc2ccccc12 | 42
C[C@@H](NCC1CNc2ccccc2O1)c1cccc2ccccc12 (stereo not given in full) | 18

System: Rattus norvegicus
Assay: Effect on parathyroid hormone in po dosed overnight fasted Sprague-Dawley rat assessed as reduction in plasma PTH level measured after 0.5 to 6 hrs of post treatment by sandwich ELISA analysis
Format: functional, organism-based
Details: dose 3-30 mg/kg, time 0.5-6 hrs

Structure (SMILES) | Activity
Cc1ccc(N2CC(CN[C@H](C)c3cccc4ccccc34)Oc3ccccc32)cc1C(=O)O (stereo not given in full) | Dose-Dependent Effect
